# Assay results published in patent US10940139B2, “Compounds that interact with the Ras superfamily for the treatment of cancers, inflammatory diseases, rasopathies, and fibrotic disease” (Shy Therapeutics LLC, priority 2017, dated 2021).
# Tests used:
# Assay in all cases: Ras GTP binding domain inhibition assay (labeled GTP)
# KRas G12D mutant protein = KRas G12D mutant protein (Homo sapiens (Human), UniProt P01116, G12D); settings: 20 μM compound; read-out: % Inhibition at 20 μM KRas G12D
# KRas G12C mutant = KRas G12C mutant (Homo sapiens (Human), UniProt P01116, G12C); settings: 20 μM compound; read-out: % Inhibition at 20 μM KRas G12C
# Procedure, shortened: (§1)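 His-tagged KRas protein (3-10 μg/ml) was captured overnight at 4° C on nickel-coated wells in 50 mM Tris pH 7.5, 1 mM MgCl2, 1 mM DTT. Bound labeled GTP was read by fluorescence after washing.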
# [1] = target: KRas G12C/Q61H double mutant (Homo sapiens (Human), UniProt P01116, G12C/Q61H); settings: 20 μM compound; read-out: % Inhibition at 20 μM KRas G12C Q61H
# Procedure, shortened: as §1
# [2] = target: KRas G12D/Q61H double mutant (Homo sapiens (Human), UniProt P01116, G12D/Q61H); settings: 20 μM compound; read-out: % Inhibition at 20 μM KRas G12D Q61H
# Procedure, shortened: as §1
# KRas Q61H mutant = KRas Q61H mutant (Homo sapiens (Human), UniProt P01116, Q61H); settings: 20 μM compound; read-out: % Inhibition at 20 μM KRas Q61H
# Procedure, shortened: as §1
# KRas wild type = KRas wild type (Homo sapiens (Human), UniProt P01116); settings: 20 μM compound; read-out: % Inhibition at 20 μM KRas wild type
# Procedure, shortened: as §1
# Chain of KRas Q61H mutant (P01116-2 other isoform, or with tags, fused parts or gaps Q61H): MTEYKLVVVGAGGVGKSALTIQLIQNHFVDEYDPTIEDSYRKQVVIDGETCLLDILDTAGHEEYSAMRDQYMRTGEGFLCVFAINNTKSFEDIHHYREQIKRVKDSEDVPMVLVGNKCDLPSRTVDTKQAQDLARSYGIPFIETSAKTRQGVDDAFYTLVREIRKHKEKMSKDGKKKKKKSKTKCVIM
# Chain of KRas G12D mutant protein (P01116-2 other isoform, or with tags, fused parts or gaps G12D): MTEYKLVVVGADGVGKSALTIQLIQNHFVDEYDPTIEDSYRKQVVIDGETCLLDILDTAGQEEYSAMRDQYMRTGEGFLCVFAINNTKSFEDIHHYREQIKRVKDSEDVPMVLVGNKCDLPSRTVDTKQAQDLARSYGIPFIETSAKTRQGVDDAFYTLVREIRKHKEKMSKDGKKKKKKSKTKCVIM
# Chain of KRas G12C/Q61H double mutant (P01116-2 other isoform, or with tags, fused parts or gaps G12C/Q61H): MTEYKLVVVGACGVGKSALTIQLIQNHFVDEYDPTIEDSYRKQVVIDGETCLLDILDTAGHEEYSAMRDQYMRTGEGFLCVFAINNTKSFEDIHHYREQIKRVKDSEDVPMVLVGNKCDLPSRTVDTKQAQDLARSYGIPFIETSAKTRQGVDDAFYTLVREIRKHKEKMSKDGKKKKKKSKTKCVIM
# Chain of KRas G12D/Q61H double mutant (P01116-2 other isoform, or with tags, fused parts or gaps G12D/Q61H): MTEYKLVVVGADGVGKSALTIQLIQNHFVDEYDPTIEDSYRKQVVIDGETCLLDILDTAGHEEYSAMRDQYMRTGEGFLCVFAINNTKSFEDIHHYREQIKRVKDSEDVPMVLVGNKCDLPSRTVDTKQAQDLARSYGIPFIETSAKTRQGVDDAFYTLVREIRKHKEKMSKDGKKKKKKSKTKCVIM
# Chain of KRas G12C mutant (P01116-2 other isoform, or with tags, fused parts or gaps G12C): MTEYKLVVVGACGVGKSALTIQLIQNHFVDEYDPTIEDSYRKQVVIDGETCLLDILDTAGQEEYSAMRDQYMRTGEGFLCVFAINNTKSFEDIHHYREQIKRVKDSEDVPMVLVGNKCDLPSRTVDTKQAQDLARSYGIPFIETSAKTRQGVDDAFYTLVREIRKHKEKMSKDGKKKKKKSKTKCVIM
# Chain of KRas wild type (P01116-2 other isoform, or with tags, fused parts or gaps): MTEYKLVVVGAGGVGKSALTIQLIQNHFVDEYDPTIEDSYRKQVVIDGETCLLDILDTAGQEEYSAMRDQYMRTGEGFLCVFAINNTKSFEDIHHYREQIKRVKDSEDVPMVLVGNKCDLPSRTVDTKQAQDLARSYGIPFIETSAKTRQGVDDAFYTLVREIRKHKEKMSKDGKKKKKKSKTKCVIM
structure (smiles),measurement,setting,value
Oc1nc(-c2ccccn2)nc2c(-c3ccsc3)csc12 [drawing 2875],inhibition at 20 µM,KRas G12D mutant protein,51 to 75%
same,inhibition at 20 µM,KRas G12C mutant,51 to 75%
same,inhibition at 20 µM,[1],25 to 50%
same,inhibition at 20 µM,[2],25 to 50%
same,inhibition at 20 µM,KRas Q61H mutant,25 to 50%
same,inhibition at 20 µM,KRas wild type,1 to 25%
Oc1nc(-c2ccccn2)nc2c(-c3ccc(OC(F)F)cc3F)csc12 [drawing 2876],inhibition at 20 µM,KRas G12D mutant protein,51 to 75%
same,inhibition at 20 µM,KRas G12C mutant,25 to 50%
same,inhibition at 20 µM,[1],51 to 75%
same,inhibition at 20 µM,[2],51 to 75%
same,inhibition at 20 µM,KRas Q61H mutant,51 to 75%
same,inhibition at 20 µM,KRas wild type,51 to 75%
CC(C)COc1ccc(-c2csc3c(O)nc(-c4ccccn4)nc23)cn1 [drawing 2877],inhibition at 20 µM,KRas G12D mutant protein,51 to 75%
same,inhibition at 20 µM,KRas G12C mutant,51 to 75%
same,inhibition at 20 µM,[1],51 to 75%
same,inhibition at 20 µM,[2],51 to 75%
same,inhibition at 20 µM,KRas Q61H mutant,51 to 75%
same,inhibition at 20 µM,KRas wild type,51 to 75%
Oc1nc(-c2ccccn2)nc2c(-c3ccc4c(c3)OCO4)csc12 [drawing 2879],inhibition at 20 µM,KRas G12D mutant protein,51 to 75%
same,inhibition at 20 µM,KRas G12C mutant,25 to 50%
same,inhibition at 20 µM,[1],51 to 75%
same,inhibition at 20 µM,[2],51 to 75%
same,inhibition at 20 µM,KRas Q61H mutant,51 to 75%
same,inhibition at 20 µM,KRas wild type,51 to 75%
CC(C)(O)c1ccc(-c2csc3c(O)nc(-c4ccccn4)nc23)c(F)c1 [drawing 2880],inhibition at 20 µM,KRas G12D mutant protein,51 to 75%
same,inhibition at 20 µM,KRas G12C mutant,51 to 75%
same,inhibition at 20 µM,[1],51 to 75%
same,inhibition at 20 µM,[2],51 to 75%
same,inhibition at 20 µM,KRas Q61H mutant,51 to 75%
same,inhibition at 20 µM,KRas wild type,51 to 75%
COc1ccc(-c2csc3c(O)nc(-c4ccccn4)nc23)c(C)c1 [drawing 2881],inhibition at 20 µM,KRas G12D mutant protein,51 to 75%
same,inhibition at 20 µM,KRas G12C mutant,51 to 75%
same,inhibition at 20 µM,[1],51 to 75%
same,inhibition at 20 µM,[2],51 to 75%
same,inhibition at 20 µM,KRas Q61H mutant,51 to 75%
same,inhibition at 20 µM,KRas wild type,25 to 50%
Oc1nc(-c2ccccn2)nc2c(-c3ccccc3C(F)F)csc12 [drawing 2883],inhibition at 20 µM,KRas G12D mutant protein,51 to 75%
same,inhibition at 20 µM,KRas G12C mutant,25 to 50%
same,inhibition at 20 µM,[1],51 to 75%
same,inhibition at 20 µM,[2],51 to 75%
same,inhibition at 20 µM,KRas Q61H mutant,51 to 75%
same,inhibition at 20 µM,KRas wild type,25 to 50%
COc1cc(-c2csc3c(O)nc(-c4ccccn4)nc23)cnc1C(F)(F)F [drawing 2884],inhibition at 20 µM,KRas G12D mutant protein,51 to 75%
same,inhibition at 20 µM,KRas G12C mutant,51 to 75%
same,inhibition at 20 µM,[1],51 to 75%
same,inhibition at 20 µM,[2],51 to 75%
same,inhibition at 20 µM,KRas Q61H mutant,51 to 75%
same,inhibition at 20 µM,KRas wild type,51 to 75%
CNC(=O)c1ccc(-c2csc3c(O)nc(-c4ccccn4)nc23)cc1C [drawing 2885],inhibition at 20 µM,KRas G12D mutant protein,25 to 50%
same,inhibition at 20 µM,KRas G12C mutant,25 to 50%
same,inhibition at 20 µM,[1],25 to 50%
same,inhibition at 20 µM,[2],25 to 50%
same,inhibition at 20 µM,KRas Q61H mutant,25 to 50%
same,inhibition at 20 µM,KRas wild type,25 to 50%
OCC1(c2ccc(-c3csc4c(O)nc(-c5ccccn5)nc34)cc2)CC1 [drawing 2886],inhibition at 20 µM,KRas G12D mutant protein,76 to 100%
same,inhibition at 20 µM,KRas G12C mutant,25 to 50%
same,inhibition at 20 µM,[1],51 to 75%
same,inhibition at 20 µM,[2],51 to 75%
same,inhibition at 20 µM,KRas Q61H mutant,51 to 75%
same,inhibition at 20 µM,KRas wild type,76 to 100%
Cc1cnccc1-c1csc2c(O)nc(-c3ccccn3)nc12 [drawing 2888],inhibition at 20 µM,KRas G12D mutant protein,51 to 75%
same,inhibition at 20 µM,KRas G12C mutant,25 to 50%
same,inhibition at 20 µM,[1],51 to 75%
same,inhibition at 20 µM,[2],51 to 75%
same,inhibition at 20 µM,KRas Q61H mutant,51 to 75%
same,inhibition at 20 µM,KRas wild type,76 to 100%
O=C(CCn1ccnc1)Nc1nc(-c2ccccn2)nc2sccc12 [drawing 2889],inhibition at 20 µM,KRas G12D mutant protein,76 to 100%
same,inhibition at 20 µM,KRas G12C mutant,25 to 50%
same,inhibition at 20 µM,[1],51 to 75%
same,inhibition at 20 µM,[2],51 to 75%
same,inhibition at 20 µM,KRas Q61H mutant,76 to 100%
same,inhibition at 20 µM,KRas wild type,51 to 75%
O=C(CCc1nn[nH]n1)Nc1nc(-c2ccccn2)nc2sccc12 [drawing 2890],inhibition at 20 µM,KRas G12D mutant protein,51 to 75%
same,inhibition at 20 µM,KRas G12C mutant,25 to 50%
same,inhibition at 20 µM,[1],51 to 75%
same,inhibition at 20 µM,[2],51 to 75%
same,inhibition at 20 µM,KRas Q61H mutant,51 to 75%
same,inhibition at 20 µM,KRas wild type,51 to 75%
O=C(CCc1cncnc1)Nc1nc(-c2ccccn2)nc2sccc12 [drawing 2891],inhibition at 20 µM,KRas G12D mutant protein,51 to 75%
same,inhibition at 20 µM,KRas G12C mutant,25 to 50%
same,inhibition at 20 µM,[1],76 to 100%
same,inhibition at 20 µM,[2],51 to 75%
same,inhibition at 20 µM,KRas Q61H mutant,51 to 75%
same,inhibition at 20 µM,KRas wild type,51 to 75%
Oc1nc(-c2ccccn2)nc2c(-c3ccccn3)csc12 [drawing 2896],inhibition at 20 µM,KRas G12D mutant protein,25 to 50%
same,inhibition at 20 µM,KRas G12C mutant,25 to 50%
same,inhibition at 20 µM,[1],51 to 75%
same,inhibition at 20 µM,[2],1 to 25%
same,inhibition at 20 µM,KRas Q61H mutant,25 to 50%
same,inhibition at 20 µM,KRas wild type,51 to 75%
